In patent US10351519B2, “Sulfamate derivative compounds, processes for preparing them and their uses” (BIO-PHARM SOLUTIONS CO., LTD., priority 2016, dated 2019):

Experiments:
Assay type in all cases: in vivo
Sprague-Dawley rats [1] = experiment: Antiallodynic activity on Chung model (SNL, spinal nerve ligation); conditions: orally; for SNL efficacy %: 30 mg/kg
Description: Male Sprague-Dawley rats (100-130 g, Orient Bio, Korea) were habituated for 1 week before the experiment and allowed free access to food and water throughout the experimentation. Room temperature and humidity were maintained at 24±2 and 50±10%, respectively. The neuropathic surgery (SNL, Spinal nerve ligation) model was done as described in Kim and Chung (1992). Briefly, an animal was put under gaseous anesthesia with isoflurane. The left lumber spinal nerve L5 and L6 were isolated and tightly ligated with 6-0 silk thread. The wound muscle was closed with Catgut® chrom 3/0 thread and skin was closed with Dafilon 3/0 tread. Sham controls were prepared in the same manner with the spinal nerves exposed, but with no ligated L5 and L6 nerves. Preparation of the vehicle controls were identical to the group treated with compound, except for administration of vehicles without compound in the vehicle control group.
Tactile sensitivity (Mechanical allodynia) was evaluated using von Frey monofilaments before and after treatment, and animals were included in the study only if the withdrawal threshold value was less than 4 g. One week after surgery, SNL-operated animals, sham-operated animals and vehicle control animals were tested for tactile sensitivity with von Frey monofilaments 3 trials in each animal. All Animals were placed in a stainless steel mash chamber and habituated for 30 min in the test cage. The tactile sensitivity for the ipsilateral hind paw was measured using the up-and-down method (Dixon, 1980) with seven von Frey monofilaments (0.4, 1, 2, 4, 6, 8, and 15 g) in 3 trials. The tactile sensitivity test was followed by Dixon's method (Dixon, 1980). The 50% paw withdrawal threshold for each paw was calculated using the following formula: [Xth] log=[vFr] log+ky where [vFr] is the force of the last von Frey used, k=0.2249 which is the average interval (in log units) between the von Frey monofilaments, and y is a value that depends upon the pattern of withdrawal responses (Dixon, 1980).
All animals were fasted 18 h before the administration of the compounds. Antiallodynic effect of compounds were evaluated at the three dose, orally administrated in a volume of 5 ul/g, bw in a vehicle of 30% (v/v) PEG 400 or 20% (v/v) Tween 80. The test was performed at the peak time of efficacy after compound administration.
The relative values compared to the sham group (% control) were calculated and shown in Table 3, which show an antiallodynic effect of the test compounds on SNL model in rats.

ICR mice = experiment: Anti-epilepsy activity, MES test, mouse; conditions: for ED50 / responders at 50 mg/kg / responders at 30 mg/kg: po; for responders at 50 mg/kg / responders at 30 mg/kg: read-out: MES test (po) efficacy %
Experimental: (§1) In the MES test (Ref., G. Villetti et al. Neuropharmacology 40 (2001) 866-878), an electrical stimulus (mice: 50 mA, 60 Hz, 0.2 sec, and rats: 150 mA, 60 Hz, 0.2 sec in the test animal) supplied by an 11A Shocker (IITC Life Science Company) was delivered through corneal electrodes. All mice or rats assigned to any electroshock at peak time were treated with each test compound sample which was dissolved in 30% PEG 400 or 20% tween 80 prepared by saline solvent applied orally before the test. […] Three doses of the test sample were administered orally to 9-18 animals (3-6 mice per dose) for evaluating the respective doses at which 50% of the animals were protected from seizure (ED50). The ED50 value (median effective dose) was calculated by Litchfield and Wicoxon log-probit method which is a dose-response relationship. Experimental animals, male ICR mice and male SD rats, were purchased from OrientBio, Samtako, or Nara Biotech, Korea, and housed in cages (4-5 mice or 3 rats per cage) for 4-5 days. The range of mice body weight was between 19 and 25 grams and range of rats body weight was between 100 and 130 grams.

SD rats = experiment: Anti-epilepsy activity, MES test, rat
Experimental: as §1

Sprague-Dawley rats [2] = experiment: Antiallodynic activity on Complete Freund's Adjuvant (CFA)-induced inflammatory pain model; conditions: intraperitoneally; for response vs control in vivo at 50 mg/kg: Rattus norvegicus, ip, read-out: CFA-induced pain model efficacy %
Experimental: Male, Sprague-Dawley rats (210-250 g, Nara Bio, Korea) were habituated for 1 week before CFA injection and allowed free access to food and water throughout the experimentation. Room temperature and humidity were maintained at 24±2 and 50±10%, respectively.
CFA-induced inflammatory pain was induced by the procedure of Nagakura et al. (2003) and Gregory P. et al. (2010) with minor modifications. CFA (sigma, USA) was injected in the right plantar with a 100 ul volume under gaseous anesthesia with isoflurane. Sham controls were injected with 100 ul of saline and preparation of the vehicles without compound in the vehicle control group. Tactile sensitivity (Mechanical allodynia) was evaluated using von Frey monofilaments before and after treatment, and the animals were included in the study only if the withdrawal threshold value was less than 4 g. One week after surgery, CFA-infused treatment animals (n=4-6), sham-operated animals (n=12), and vehicle control animals (n=17) were tested for tactile sensitivity with von Frey monofilaments 3 trials for each animal. All Animals were placed in a stainless steel mesh chamber and habituated for 30 min in the test box. The tactile sensitivity for ipsilateral hind paw was measured using the up-and-down method (Dixon, 1980) with seven von Frey monofilaments (0.4, 1, 2, 4, 6, 8, and 15 g) to 3 trials. Tactile sensitivity test was followed by Dixon's method (Dixon, 1980). The 50% paw withdrawal threshold for each paw was calculated using the following formula: [Xth] log=[vFr] log+ky where [vFr] is the force of the last von Frey used, k=0.2249 which is the average interval (in log units) between the von Frey monofilaments, and y is a value that depends upon the pattern of withdrawal responses (Dixon, 1980).
Antiallodynic effect of compound was evaluated at the dose of 10-60 mg/kg (n=4-6), intraperitoneally administrated in a volume of 5 ul/g bw in a vehicle of 30% (v/v) PEG or 20% (v/v) Tween 80. The test was performed peak time of efficacy (0.5 or 1 hr) after compound administration.
The relative values compared to the sham (% control) were calculated and shown in Table 4, which show an antiallodynic effect of Compound 1 on CFA-induced pain model in rats.

Row | Structure (SMILES) | MES test (po) Peak time (ICR mice) [h] | responders at 50 mg/kg (ICR mice) [%] | response vs control in vivo at 50 mg/kg (Sprague-Dawley rats [2]) [%] | CFA-induced pain model Peak Time (Sprague-Dawley rats [2]) [h] | further results
1 | COCO[C@@H](c1c(Cl)cccc1Cl)[C@H](C)OS(N)(=O)=O [Example 57, (1S, 2S)-1-(2,6-dichlorophenyl)-1-(methoxymethoxy)propan-2-yl sulfamate] | – | – | – | – | SNL Peak Time (Sprague-Dawley rats [1]): 1 h; SNL efficacy % (Sprague-Dawley rats [1]): 30(26.3%)
2 | COCO[C@@H](c1cccc(Cl)c1Cl)[C@H](C)OS(N)(=O)=O [Example 53, (1S, 2S)-1-(2,3-dichlorophenyl)-1-(methoxymethoxy)propan-2-yl sulfamate] | 2 | – | – | – | ED50 (ICR mice): 67.8 mg/kg
3 | CC(C)NS(=O)(=O)O[C@H](C)[C@H](O)c1ccccc1Cl [Example 38, (1R, 2R)-1-(2-chlorophenyl)-1-hydroxypropan-2-yl isopropylsulfamate] | 2 | 50 | – | – | –
4 | COCO[C@@H](c1ccccc1Cl)[C@H](C)OS(=O)(=O)NC1CC1 [Example 78, (1S, 2S)-1-(2-chlorophenyl)-1-(methoxymethoxy)propan-2-yl cyclopropylsulfamate] | 4 | 25 | – | – | –
5 | CC(C)NS(=O)(=O)O[C@@H](C)[C@@H](O)c1ccccc1Cl [Example 37, (1S, 2S)-1-(2-chlorophenyl)-1-hydroxypropan-2-yl isopropylsulfamate] | – | – | – | – | MES test (po) Peak time (SD rats): 2 h; MES test (po) efficacy % (SD rats; 10 mg/kg): 16.6%
6 | C[C@H](OS(N)(=O)=O)[C@@H](O)c1cccc(Cl)c1Cl [Example 9, (1S, 2S)-1-(2,3-dichlorophenyl)-1-hydroxypropan-2-yl sulfamate] | 4 | – | – | – | ED50 (ICR mice): 61.8 mg/kg
7 | CC[C@@H](OS(N)(=O)=O)[C@H](OCOC)c1ccccc1Cl [Example 71, (1R, 2R)-1-(2-chlorophenyl)-1-(methoxymethoxy)butan-2-yl sulfamate] | – | – | 41.9 | 0.5 | SNL Peak Time (Sprague-Dawley rats [1]): 0.5 h; SNL efficacy % (Sprague-Dawley rats [1]): 30(31.9%)
8 | C[C@H](OS(N)(=O)=O)[C@@H](O)c1ccc(Cl)cc1Cl [Example 3, (1S, 2S)-1-(2,4-dichlorophenyl)-1-hydroxypropan-2-yl sulfamate] | – | – | – | – | MES test (po) Peak time (SD rats): 4 h; MES test (po) efficacy % (SD rats; 20 mg/kg): 16.6%
9 | COCO[C@H](c1ccccc1Cl)[C@@H](C)OS(=O)(=O)NC1CC1 [Example 79, (1R, 2R)-1-(2-chlorophenyl)-1-(methoxymethoxy)propan-2-yl cyclopropylsulfamate] | 1 | 25 | – | – | –
10 | COCO[C@@H](c1sc(Cl)nc1Cl)[C@H](C)OS(N)(=O)=O [Example 103, (1R,2S)-1-(2,4-dichlorothiazol-5-yl)-1-(methoxymethoxy)propan-2-yl sulfamate] | 2 | – | – | – | ED50 (ICR mice): 52.7 mg/kg
11 | COCO[C@@H](c1c(F)cccc1Cl)[C@H](C)OS(N)(=O)=O [Example 61, (1S, 2S)-1-(2-chloro-6-fluorophenyl)-1-(methoxymethoxy)propan-2-yl sulfamate] | 2 | – | – | – | responders at 30 mg/kg (ICR mice): 33.3%
12 | COCO[C@@H](c1ccccc1I)[C@H](C)OS(N)(=O)=O [Example 74, (1S, 2S)-1-(2-iodophenyl)-1-(methoxymethoxy)propan-2-yl sulfamate] | 0.5 | – | 19.9 | 0.5 | responders at 30 mg/kg (ICR mice): 33.3%
13 | CO[C@@H](c1ccccc1I)[C@H](C)OS(N)(=O)=O [Example 92, (1S,2S)-1-(2-iodophenyl)-1-methoxypropan-2-yl sulfamate] | – | – | 31.8 | 0.5 | –
14 | C[C@H](OS(N)(=O)=O)[C@@H](O)c1sc(Cl)nc1Cl [Example 102, (1R,2S)-1-(2,4-dichlorothiazol-5-yl)-1-hydroxypropan-2-yl sulfamate] | 2 | – | – | – | ED50 (ICR mice): 42.7 mg/kg
15 | CC[C@H](OS(N)(=O)=O)[C@@H](O)c1ccccc1Cl [Example 11, (1S, 2S)-1-(2-chlorophenyl)-1-hydroxybutan-2-yl sulfamate] | 2 | 25 | – | – | MES test (po) Peak time (SD rats): 2 h; MES test (po) efficacy % (SD rats; 24 mg/kg): 33.3%
16 | COCO[C@@H](c1ccccc1F)[C@H](C)OS(N)(=O)=O [Example 72, (1S, 2S)-1-(2-fluorophenyl)-1-(methoxymethoxy)propan-2-yl sulfamate] | – | – | 25.9 | 0.5 | –
17 | CC(C)[C@H](OS(N)(=O)=O)[C@@H](O)c1ccccc1Cl [Example 13, (1S, 2S)-1-(2-chlorophenyl)-1-hydroxy-3-methylbutan-2-yl sulfamate] | 1 | 25 | – | – | –
18 | CC[C@@H](OS(N)(=O)=O)[C@H](O)c1ccccc1Cl [Example 12, (1R, 2R)-1-(2-chlorophenyl)-1-hydroxybutan-2-yl sulfamate] | – | – | 21.9 | 0.5 | MES test (po) Peak time (SD rats): 1 h; MES test (po) efficacy % (SD rats; 100 mg/kg): 100%
19 | CC(C)[C@@H](OS(N)(=O)=O)[C@H](O)c1ccccc1Cl [Example 14, (1R, 2R)-1-(2-chlorophenyl)-1-hydroxy-3-methylbutan-2-yl sulfamate] | 1 | 25 | 18.4 | 1 | –
20 | COCO[C@H](c1c(Cl)cccc1Cl)[C@@H](C)OS(N)(=O)=O [Example 58, (1R, 2R)-1-(2,6-dichlorophenyl)-1-(methoxymethoxy)propan-2-yl sulfamate] | 1 | – | 17.7 | 0.5 | ED50 (ICR mice): 54.4 mg/kg
